Assay results taken from patent US20050165064A1, “Novel thiol derivative, process for producing the same and use thereof” (priority 2003, published 2005).
Structures can show the parent of a compound that is named as a salt.

Target: Recombinant Human MMP-13 (Homo sapiens, UniProt P45452)
Assay: MMP-13 inhibitory activity, fluorescent synthetic substrate method
Format: biochemical
Settings: 8 nM APMA-activated enzyme, 10 μM substrate, 37° C., 1 hour
Method: The MMP-13 inhibitory activity was measured by a method using a fluorescent synthetic substrate. To a buffer solution for measurement (100 mM Tris-HCl, pH 7.4, 100 mM NaCl, 10 mM CaCl2) containing Recombinant Human MMP-13 (manufactured by Takeda Pharmaceuticals, Inc.) activated by APMA (1 mM) in a concentration of 8 nM, the compound dissolved in DMSO was added in a predetermined concentration. Subsequently, a fluorescent synthetic substrate (7-methoxycoumarin-4-yl)acetyl-Pro-Leu-Gly-Leu-(3-[2,4-dinitrophenyl]-L-2,3-diaminopropionyl)-Ala-Arg-NH2 was added thereto in a concentration of 10 μM to initiate the reaction. After incubation at 37° C. for 1 hour, a 500 mM acetate buffer (pH 3.0) was added to stop the reaction. The increase in the fluorescence intensity due to substrate decomposition was measured employing a CORONA MTP-32 plate reader under the condition of Ex/Em=340/400. The rate of inhibition of the enzymatic inhibitory activity was determined from the following equation: Rate of Inhibition (%)=100−(X−C)/(T−C)×100
T: Fluorescence intensity of the control with addition of enzyme and without addition of the compound
C: Fluorescence intensity of the control without addition of enzyme and without addition of the compound
X: Fluorescence intensity with addition of enzyme and with addition of the compound

## O=C1C[C@@H](S)CN1Cc1ccc(Oc2ccc(F)cc2)nc1 [Example 2, (4R)-1-{[6-(4-fluorophenoxy)pyridin-3-yl]methyl}-4-mercaptopyrrolidin-2-one hydrochloride]
Compound 3 nM, read-out: rate of inhibition for MMP-13 activity
  inhibition at 0.003 µM: 63%

## CCc1ccc(Oc2ccc(CN3C[C@H](S)CC3=O)cn2)cc1 [Example 12, (4R)-1-{[6-(4-ethylphenoxy)pyridin-3-yl]methyl}-4-mercaptopyrrolidin-2-one]
Compound 1.5 nM, read-out: rate of inhibition for MMP-13 activity
  inhibition at 0.0015 µM: 50%

## CS(=O)(=O)Nc1ccc(Oc2ccc(CN3C[C@H](S)CC3=O)cn2)cc1 [Example 15]
Compound 1.5 nM
  rate of inhibition for MMP-13 activity: 67%
